From PMC8296573, “Synthesis and Biological Evaluation of Fingolimod Derivatives as Antibacterial Agents” (ACS Omega, 2021)
Values after ≈ are worked out from the molar mass of the structure shown. Where two headings read alike, the source gives them in different places.

How the values were obtained:
S. aureus ATCC 12598 = assay: Antibacterial activity, pre-exposure; format: cell-based, Staphylococcus aureus; details: for Average inhibition %, biofilms biomass / Average inhibition %, biofilms viability / Average inhibition %, planktonic cells turbidity / Average inhibition %, planktonic cells viability / inhibition at 5 µM / inhibition at 10 µM / inhibition at 15 µM / inhibition at 25 µM: S. aureus ATCC 12598, pre-exposure, ± SD; for inhibition at 5 µM / inhibition at 10 µM / inhibition at 15 µM / inhibition at 25 µM / MIC: Staphylococcus aureus, ATCC12598
Procedure, shortened: (§1)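 Growth prevention was tested by adding compounds together with the inoculum. Plates were incubated 18 h at 37 °C. Viability was read by resazurin fluorescence and biomass by crystal violet absorbance at 595 nm.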

S. aureus P2 = assay: Antibacterial activity, pre-exposure; format: cell-based, Staphylococcus aureus; details: for Average inhibition %, biofilms biomass / Average inhibition %, biofilms viability / Average inhibition %, planktonic cells turbidity / Average inhibition %, planktonic cells viability / inhibition at 5 µM / inhibition at 10 µM / inhibition at 15 µM / inhibition at 25 µM: S. aureus P2, pre-exposure, ± SD
Procedure, shortened: as §1

[1] = Colloidal aggregation by nephelometry; format: physicochemical; details: 25 µM
Description: 3. Aggregation data (Figure S3)
Potential colloidal aggregation in biological assays was studied at five concentrations (5 µM, 10 µM, 15 µM,
25 µM, 50 µM). The original assay conditions were simulated, and the light scattering of potential aggregates
in the mixture was studied by nephelometric methods using Nepheloskan Ascent (Labsystems, Finland).
Aggregation of the blank and compounds fingolimod, 43, 45, 55, 62, 79 and 82 were measured as triplicates
from one independent experiment at 400 V and at room temperature.
formation at 50 µM. […] However, at 15
µM, 10 µM and 5 µM, the obtained values were close to those observed by blank, therefore indicating only
minor or no detectable aggregation.
Figure S3: Aggregation data for fingolimod and compounds 43, 45, 55, 62, 79, 82. RNU = relative nephelometric unit.
The data are shown as the mean ± SD and normalized to the blank.
(1 picture or pasted object on this page, not shown here)

[2] = Cytotoxicity, resazurin staining assay; format: cell-based, human; details: human, 24 h incubation
Description: The cytotoxicity of the compounds was assessed on the three different human cell lines, A549, HEp-2, and HL-60, using the redox-based resazurin staining assay. The cells were seeded in clear 96-well plates at a density of 1 × 10^4 cells per well in a volume of 200 μL per well. The adherent cells were let to attach for 24 h before changing the media and adding the compounds (final concentration of 0.25% DMSO). HL-60 were counted and added to the plates at a density of 1 × 10^4 cells per well in a volume of 200 μL directly with the compounds. Untreated cells were used as negative controls, and cells treated with 1% TritonX-100 (Sigma-Aldrich, St. Louis, MO) were used as positive controls for cytotoxicity. The cells were incubated with the compounds for 24 h.
For the resazurin assay, the media was first removed, and the adherent cells were washed once with PBS. Then, 200 μL of 20 μM resazurin was added per well and cells were incubated for two more hours before the measurement of fluorescence, as mentioned earlier. For HL-60, 10 μL of 400 μM resazurin was added directly to the wells and the cells were incubated for an additional 4 h before the measurement of fluorescence.

Molecule	Average inhibition %, biofilms viability (S. aureus ATCC 12598; 5 µM)	Average inhibition %, planktonic cells viability (S. aureus ATCC 12598; 5 µM)	Average inhibition %, biofilms viability (S. aureus ATCC 12598; 10 µM)	Average inhibition %, planktonic cells viability (S. aureus ATCC 12598; 10 µM)	Average inhibition %, biofilms viability (S. aureus ATCC 12598; 15 µM)	Average inhibition %, planktonic cells viability (S. aureus ATCC 12598; 15 µM)	Average inhibition %, biofilms viability (S. aureus ATCC 12598; 25 µM)	Average inhibition %, planktonic cells viability (S. aureus ATCC 12598; 25 µM)	Average inhibition %, biofilms viability (S. aureus P2; 5 µM)	Average inhibition %, planktonic cells viability (S. aureus P2; 5 µM)	Average inhibition %, biofilms viability (S. aureus P2; 10 µM)	Average inhibition %, planktonic cells viability (S. aureus P2; 10 µM)	Average inhibition %, biofilms viability (S. aureus P2; 15 µM)	Average inhibition %, planktonic cells viability (S. aureus P2; 15 µM)	Average inhibition %, biofilms viability (S. aureus P2; 25 µM)	Average inhibition %, planktonic cells viability (S. aureus P2; 25 µM)	Aggregation (nephelometry) [1]	CC50 at 24 h ([2]; A549 cells)	CC50 at 24 h ([2]; HEp-2 cells)	CC50 at 24 h ([2]; HL-60 cells)	also measured
2-Amino-2-(4-decylbenzyl)propane-1,3-diol [Compound 45]	83.6 ± 38.2%	83.4 ± 39.6%	99.6 ± 0.1%	99.8 ± 0%	99.6 ± 0.1%	99.8 ± 0%	99.6 ± 0.1%	99.8 ± 0.1%	69.6 ± 37.8%	70 ± 36.1%	99.6 ± 0%	99.8 ± 0%	99.6 ± 0%	99.7 ± 0.1%	99.6 ± 0%	99.6 ± 0.1%	potential aggregation	–	–	–	Average inhibition %, biofilms biomass (S. aureus ATCC 12598; 5 µM): 75.4 ± 28.1%; Average inhibition %, planktonic cells turbidity (S. aureus ATCC 12598; 5 µM): 89.3 ± 24.1%; Average inhibition %, biofilms biomass (S. aureus ATCC 12598; 10 µM): 95.3 ± 0.4%; Average inhibition %, planktonic cells turbidity (S. aureus ATCC 12598; 10 µM): 99.4 ± 0%; Average inhibition %, biofilms biomass (S. aureus ATCC 12598; 15 µM): 94.4 ± 0.3%; Average inhibition %, planktonic cells turbidity (S. aureus ATCC 12598; 15 µM): 99.1 ± 0%; Average inhibition %, biofilms biomass (S. aureus ATCC 12598; 25 µM): 94.9 ± 1%; Average inhibition %, planktonic cells turbidity (S. aureus ATCC 12598; 25 µM): 98.3 ± 0.2%; MIC S. aureus ATCC 12598 (S. aureus ATCC 12598; pre-exposure, 18 h): 5 to 10 µM; Average inhibition %, biofilms biomass (S. aureus P2; 5 µM): 74.6 ± 24.7%; Average inhibition %, planktonic cells turbidity (S. aureus P2; 5 µM): 74.4 ± 34.2%; Average inhibition %, biofilms biomass (S. aureus P2; 10 µM): 97.6 ± 0.3%; Average inhibition %, planktonic cells turbidity (S. aureus P2; 10 µM): 99.4 ± 0.1%; Average inhibition %, biofilms biomass (S. aureus P2; 15 µM): 96.9 ± 1.4%; Average inhibition %, planktonic cells turbidity (S. aureus P2; 15 µM): 99.1 ± 0.1%; Average inhibition %, biofilms biomass (S. aureus P2; 25 µM): 97.6 ± 0.3%; Average inhibition %, planktonic cells turbidity (S. aureus P2; 25 µM): 98.6 ± 0.1%; MIC S. aureus P2 (S. aureus P2; pre-exposure, 18 h): 5 to 10 µM
CCCCCCCCc1ccc2cc(CC(N)(CO)CO)ccc2c1 [Compound 79, 2-Amino-2-[(6-octylnaphthalen-2-yl)methyl]propane-1,3-diol]	65.9 ± 50.1%	69.3 ± 47.1%	99.6 ± 0.1%	99.8 ± 0.1%	99.5 ± 0%	99.6 ± 0.1%	99.5 ± 0.1%	99.6 ± 0.1%	49.4 ± 34.5%	45.3 ± 32.9%	99.4 ± 0%	99.6 ± 0%	99.4 ± 0%	99.6 ± 0.1%	99.5 ± 0%	99.6 ± 0.1%	potential aggregation	> 40 µM	> 40 µM	26.9 ± 1.6 µM	inhibition at 5 µM (S. aureus ATCC 12598; 5 µM, read-out: Average inhibition %, biofilms biomass): 63.5 ± 41.5%; inhibition at 5 µM (S. aureus ATCC 12598; 5 µM, read-out: Average inhibition %, planktonic cells turbidity): 82.3 ± 26.8%; inhibition at 10 µM (S. aureus ATCC 12598; 10 µM, read-out: Average inhibition %, biofilms biomass): 94.7 ± 0.2%; inhibition at 10 µM (S. aureus ATCC 12598; 10 µM, read-out: Average inhibition %, planktonic cells turbidity): 99.6%; inhibition at 15 µM (S. aureus ATCC 12598; 15 µM, read-out: Average inhibition %, biofilms biomass): 94.6 ± 0.6%; inhibition at 15 µM (S. aureus ATCC 12598; 15 µM, read-out: Average inhibition %, planktonic cells turbidity): 99.4 ± 0.1%; inhibition at 25 µM (S. aureus ATCC 12598; 25 µM, read-out: Average inhibition %, biofilms biomass): 95 ± 1%; inhibition at 25 µM (S. aureus ATCC 12598; 25 µM, read-out: Average inhibition %, planktonic cells turbidity): 99.2 ± 0.3%; MIC (S. aureus ATCC 12598; S. aureus ATCC 12598 and P2, read-out: MIC against the clinical strains of S. aureus): 5 to 10 µM (≈ 1.72 to 3.44 µg/mL); MIC (S. aureus ATCC 12598; pre-exposure, 18 h, read-out: MIC S. aureus ATCC 12598): 5 to 10 µM (≈ 1.72 to 3.44 µg/mL); MIC (S. aureus P2; Staphylococcus aureus, P2, pre-exposure, 18 h): 10 µM (≈ 3.44 µg/mL); inhibition at 5 µM (S. aureus P2; Staphylococcus aureus, 5 µM, read-out: Average inhibition %, biofilms biomass): 63.6 ± 23.6%; inhibition at 5 µM (S. aureus P2; Staphylococcus aureus, 5 µM, read-out: Average inhibition %, planktonic cells turbidity): 45.4 ± 35.4%; inhibition at 10 µM (S. aureus P2; Staphylococcus aureus, 10 µM, read-out: Average inhibition %, biofilms biomass): 95.8 ± 2.2%; inhibition at 10 µM (S. aureus P2; Staphylococcus aureus, 10 µM, read-out: Average inhibition %, planktonic cells turbidity): 99.5%; inhibition at 15 µM (S. aureus P2; Staphylococcus aureus, 15 µM, read-out: Average inhibition %, biofilms biomass): 97.3 ± 0.5%; inhibition at 15 µM (S. aureus P2; Staphylococcus aureus, 15 µM, read-out: Average inhibition %, planktonic cells turbidity): 99.4 ± 0.1%; inhibition at 25 µM (S. aureus P2; Staphylococcus aureus, 25 µM, read-out: Average inhibition %, biofilms biomass): 96.4 ± 1.3%; inhibition at 25 µM (S. aureus P2; Staphylococcus aureus, 25 µM, read-out: Average inhibition %, planktonic cells turbidity): 99.1 ± 0.2%
CCCCCCCCc1cccc(CCC(N)(CO)CO)c1 [Compound 43, 2-Amino-2-(3-octylphenethyl)propane-1,3-diol]	–	–	–	–	–	–	–	–	–	–	–	–	–	–	–	–	potential aggregation	> 40 µM	> 40 µM	23.4 ± 3.2 µM	–
